Source: ChEMBL document CHEMBL3046582, “Antifeedant activity of sesquiterpenes from celastraceae” (1997)
Active and inactive are the calls of the source. The calls are words filed in the database; no cut-off is given here.

Key:
Spodoptera littoralis [1] = experiment: Antifeedant activity against newly ecdysed fifth-instar larval stage of Spodoptera littoralis in compound-pretreated lettuce leaf disks assessed as consumed area of leaf disks at 1 ug/cm'2 measured at 30 min intervals for 4-5 hr post-drug exposure by choice test; format: functional
Spodoptera littoralis [2] = experiment: Antifeedant activity against newly ecdysed fifth-instar larval stage of Spodoptera littoralis in compound-pretreated lettuce leaf disks assessed as consumed area of leaf disks at 10 ug/cm'2 measured at 30 min intervals for 4-5 hr post-drug exposure by choice test; format: functional
Spodoptera littoralis [3] = experiment: Insecticidal activity against newly ecdysed fifth-instar larval stage of Spodoptera littoralis in compound-pretreated lettuce leaf disks assessed as mortality at 3 hr post-drug exposure; format: functional
Spodoptera littoralis [4] = experiment: Antifeedant activity against newly ecdysed fifth-instar larval stage of Spodoptera littoralis in compound-pretreated lettuce leaf disks assessed as consumed area of leaf disks measured at 30 min intervals for 4-5 hr post-drug exposure by choice test; format: functional, organism-based

Row | Compound | FR50 (Spodoptera littoralis [1]) | FR50 (Spodoptera littoralis [2]) | LD100 (Spodoptera littoralis [3]) | Activity (Spodoptera littoralis [4])
1 | C/C=C(/C)C(=O)O[C@@H]1[C@@H]2[C@@H](OC(C)=O)[C@@]3(OC2(C)C)[C@@](OC(C)=O)([C@@H](OC(=O)c2ccccc2)CC[C@]3(C)O)[C@@H]1OC(=O)c1ccccc1 | 0.29 | 0.12 | – | –
2 | CC(=O)O[C@@H]1[C@H]2C(=O)[C@@H](OC(=O)c3ccccc3)[C@]3(O)[C@@H](OC(C)=O)[C@@H](C(C)=O)CC(C)[C@@]13OC2(C)C (stereo not given in full) | – | 0.41 | – | –
3 | CC(=O)O[C@@H]1[C@@H]2[C@@H](OC(C)=O)[C@@]3(OC2(C)C)[C@](O)([C@@H]1OC(=O)c1ccccc1)[C@@H](OC(C)=O)[C@@H](C(C)=O)C[C@]3(C)O | 0.66 | 0.16 | – | –
4 | CC(=O)OCC1CCCO1 (stereo not given) | – | – | inactive | inactive
5 | CC(=O)O[C@@H]1[C@H]2C[C@H](OC(=O)c3ccccc3)[C@]3(C)[C@@H](OC(=O)c4ccccc4)[C@H](C(C)=O)[C@H](C(C)=O)[C@](C)(O)[C@@]13OC2(C)C | – | 0.65 | – | –
6 | CC(=O)O[C@H]1C[C@](C)(O)[C@]23OC(C)(C)[C@H](C(=O)[C@@H](OC(=O)c4ccccc4)[C@]2(OC(C)=O)[C@H]1OC(=O)c1ccccc1)[C@H]3OC(C)=O | – | – | 0.1 microg/cm2 | –
7 | OC1CCOC1 (stereo in doubt; 46) | – | – | inactive | inactive
8 | CC(=O)O[C@H]1CCC(C)[C@]23OC(C)(C)[C@H]([C@@H](O)[C@H](OC(=O)c4ccccc4)[C@]12OC(C)=O)[C@H]3OC(C)=O (stereo not given in full) | 0.25 | 0.05 | – | –
9 | CC[C@@H]1CCC(=O)O[C@H]2[C@H](OC(C)=O)[C@H](OC(C)=O)[C@@]3(OC(C)=O)[C@H](OC(C)=O)C(=O)[C@@H]4[C@@H](OC(C)=O)[C@]3(O[C@@]4(C)COC(=O)c3ccccc31)[C@@]2(C)O [ORTHOSPHENINE] | – | – | 0.01 microg/cm2 | –
10 | CC(=O)O[C@@H]1[C@H]2C[C@H](OC(=O)c3ccccc3)[C@]3(C)[C@@H](OC(=O)c4ccccc4)[C@H](C(C)=O)C[C@](C)(O)[C@@]13OC2(C)C | – | 0.35 | – | –
11 | CC(=O)O[C@@H]1[C@H]2C[C@H](OC(=O)c3ccccc3)[C@]3(O)[C@@H](OC(C)=O)[C@@H](C(C)=O)CC(C)[C@@]13OC2(C)C (stereo not given in full) | 0.54 | 0.19 | – | –
12 | CC(=O)O[C@H]1CCC(C)[C@]23OC(C)(C)[C@H]([C@@H](C(C)=O)[C@H](OC(=O)c4ccccc4)[C@]12OC(C)=O)[C@H]3OC(C)=O (stereo not given in full) | 0.44 | 0.04 | – | –
13 | CC(=O)OC1CCOC1 (racemic) | – | – | inactive | inactive
14 | CC(=O)O[C@@H]1[C@H]2C[C@H](OC(=O)c3ccccc3)[C@]3(C)[C@@H](OC(=O)c4ccccc4)[C@H](O)[C@H](C(C)=O)[C@](C)(O)[C@@]13OC2(C)C | – | 0.56 | – | –
15 | OC1CCOC1 (racemic) | – | – | inactive | inactive
16 | CC(=O)O[C@@H]1[C@@H]2[C@@H](OC(C)=O)[C@]3(OC2(C)C)C(C)C[C@H](C(C)=O)[C@H](OC(C)=O)[C@@]3(O)[C@H]1OC(=O)c1ccccc1 (stereo not given in full) | 0.71 | 0.13 | – | –
17 | CC(=O)OCC1CCOC1 (stereo not given) | – | – | inactive | inactive
18 | O=C(OC1CCOC1)c1ccccc1 (racemic) | – | – | inactive | inactive
19 | CC(=O)O[C@H]1[C@@H]2[C@@H](O)[C@@]3(OC2(C)C)[C@](C)([C@H]1OC(=O)c1ccccc1)[C@@H](OC(=O)c1ccccc1)[C@H](OC(C)=O)[C@H](OC(C)=O)[C@]3(C)O | – | 0.38 | – | –
20 | CCC(C)C(=O)OC (single isomer, unassigned; (+)) | – | – | inactive | inactive

Row | Compound | FR50 (Spodoptera littoralis [1]) | FR50 (Spodoptera littoralis [2]) | LD100 (Spodoptera littoralis [3]) | Activity (Spodoptera littoralis [4])
21 | OCC1CCOC1 (stereo not given) | – | – | inactive | inactive
22 | CC(=O)O[C@H]1CC[C@](C)(O)[C@]23OC(C)(C)[C@H]([C@@H](OC(=O)c4ccccc4)[C@@H](OC(=O)c4ccccc4)[C@]12OC(C)=O)[C@H]3OC(C)=O | 0.4 | 0.15 | – | –
23 | O=C(OC1CCOC1)c1cc([N+](=O)[O-])cc([N+](=O)[O-])c1 (racemic) | – | – | inactive | inactive
24 | CC(=O)O[C@@H]1[C@H]2[C@@H](OC(=O)c3ccccc3)[C@@H](OC(=O)c3ccccc3)[C@]3(OC(C)=O)[C@@H](OC(=O)c4ccccc4)CC[C@](C)(O)[C@@]13OC2(C)C | – | 0.76 | – | –
25 | CC(=O)O[C@H]1[C@H](OC(=O)c2ccccc2)[C@@]2(C)[C@@H](O/C=C/c3ccccc3)C[C@@H]3[C@@H](OC(C)=O)[C@]2(OC3(C)C)[C@@](C)(O)[C@H]1O | – | 0.76 | – | –
26 | COCCCC[C@@H]1[C@@H]2[C@@H](OC(C)=O)[C@@]3(OC2(C)C)[C@@](OC(C)=O)([C@@H](OC(=O)c2ccccc2)CC[C@]3(C)O)[C@@H]1OC(=O)c1ccccc1 | – | 0.45 | – | –
27 | CC(=O)O[C@H]1[C@H](OC(=O)c2ccccc2)[C@@]2(C)[C@@H](OC(=O)c3ccccc3)C[C@H]3C[C@]2(OC3(C)C)[C@@](C)(O)[C@H]1O | – | 0.61 | – | –
28 | CC(=O)O[C@@H]1[C@@H]2[C@@H](OC(C)=O)[C@]3(OC2(C)C)C(C)C[C@H](C(C)=O)[C@H](OC(C)=O)[C@@]3(OC(C)=O)[C@H]1OC(=O)c1ccccc1 (stereo not given in full) | 0.53 | 0.07 | – | –
29 | CC1(C)O[C@]23C[C@@H]1CC[C@]2(C)CC[C@H](O)[C@@]3(C)O | – | 0.52 | – | –
30 | CC(=O)O[C@H]1C[C@](C)(O)[C@]23OC(C)(C)[C@H]([C@@H](C(C)=O)[C@@H](OC(=O)c4ccccc4)[C@]2(OC(C)=O)[C@H]1OC(=O)c1ccccc1)[C@H]3OC(C)=O | – | 0.35 | – | –
31 | CC(=O)O[C@@H]1[C@H]2C[C@H](OC(=O)c3ccccc3)[C@]3(OC(C)=O)[C@@H](OC(C)=O)[C@@H](C(C)=O)CC(C)[C@@]13OC2(C)C (stereo not given in full) | – | 0.36 | – | –
32 | TRIPHENYLSTANNYL ACETATE | – | 0.37 | – | –
33 | CC(=O)O[C@H]1C[C@@H]2[C@@H](OC(=O)c3cccnc3)[C@@]3(OC2(C)C)[C@@]1(C)[C@@H](OC(=O)c1ccccc1)CC[C@]3(C)O | – | 0.68 | – | –
34 | CC(=O)O[C@@H]1[C@H]2C[C@H](OC(=O)c3ccccc3)[C@]3(C)[C@@H](OC(=O)c4ccccc4)[C@H](C(C)=O)[C@H](O)C(C)[C@@]13OC2(C)C (stereo not given in full) | – | 0.63 | – | –
35 | CC(=O)O[C@@H]1[C@@H](O)[C@@H]2[C@@H](OC(=O)c3cccnc3)[C@@]3(OC2(C)C)[C@@]1(C)[C@@H](OC(=O)c1ccccc1)CC[C@]3(C)O | – | 0.74 | – | –
36 | C/C=C(/C)C(=O)O[C@@H]1[C@@H]2[C@@H](OC(C)=O)[C@@]3(OC2(C)C)[C@@](OC(C)=O)([C@@H](OC(C)=O)CC[C@]3(C)O)[C@@H]1OC(=O)c1ccccc1 | 0.2 | 0.06 | – | –
37 | CC(=O)O[C@@H]1[C@@H]2[C@@H](OC(C)=O)[C@@]3(OC2(C)C)[C@@](OC(C)=O)([C@@H](OC(=O)c2ccccc2)CC[C@]3(C)O)[C@@H]1OC(=O)c1ccccc1 | 0.58 | 0.24 | – | –
38 | CC(=O)O[C@H]1[C@H](OC(=O)c2ccccc2)[C@@]2(C)[C@@H](OC(=O)c3ccccc3)C[C@@H]3[C@@H](OC(C)=O)[C@]2(OC3(C)C)[C@@](C)(O)[C@H]1O [2BETA,3BETA,4BETA,TRIHYDROXYCELARBICO] | 0.44 | 0.24 | – | –
39 | CC(=O)O[C@H]1C[C@](C)(O)[C@]23OC(C)(C)[C@H](C(=O)[C@@H](OC(=O)c4ccccc4)[C@]2(OC(C)=O)[C@H]1OC(C)=O)[C@H]3OC(C)=O | – | – | 1 microg/cm2 | –
40 | CC(=O)O[C@H]1[C@H](OC(=O)c2ccccc2)[C@@]2(C)[C@@H](OC(=O)c3ccccc3)C[C@@H]3[C@@H](O)[C@]2(OC3(C)C)[C@@](C)(O)[C@H]1O | – | 0.6 | – | –
